From patent publication US20050107423A1, “Quinolone antibacterial agents” (priority 2003, published 2005)
Converted amounts (≈) assume the structure as drawn.

Experiments:
Assay in all cases: Antibacterial assay, microtitration MIC (Test A)
Type in all cases: cell-based
[1] = system: E. coli EC-2549; settings: Escherichia coli, EC2549, Gram Negative Bacteria; strain EC-2549; read-out: Minimum Inhibitory Concentrations E. coli EC-2549
Experimental: (§1) The compounds of the present invention were tested against an assortment of Gram-negative and Gram-positive organisms using standard microtitration techniques (Cohen et. al., Antimicrob., 1985;28:766; Heifetz, et. al., Antimicrob., 1974;6:124). The results of the evaluation are shown in Tables 1A and B, wherein “-” means no data.

[2] = system: H. influenzae HI-3542; settings: Haemophilus influenzae, HI3542, Gram Negative Bacteria; strain HI-3542; read-out: Minimum Inhibitory Concentrations H. influenzae HI-3542
Experimental: as §1

[3] = system: M. catarrhalis BC-3531; settings: strain BC-3531; for MIC: Moraxella catarrhalis, BC3531, Gram Negative Bacteria, read-out: Minimum Inhibitory Concentrations M. catarrhalis BC-3531
Experimental: as §1

MIC [1] [µg/mL] | MIC [2] [µg/mL] | MIC [3] [µg/mL] | Compound | Minimum Inhibitory Concentrations M. catarrhalis BC-3531 ([3]; Gram Negative Bacteria) [µg/mL]
0.06 (≈ 0.154 µM) | 0.001 (≈ 0.00256 µM) | 0.015 (≈ 0.0384 µM) | Cc1c(N2C[C@@H](CO)[C@@H](CO)C2)c(F)cc2c(=O)c(C(=O)O)cn(C3CC3)c12 [drawing 386] | 
0.06 (≈ 0.16 µM) | 0.002 (≈ 0.00534 µM) |  | Cc1c(N2CCC(C(C)O)C2)c(F)cc2c(=O)c(C(=O)O)cn(C3CC3)c12 (stereo not drawn) [drawing 315] | 0.002
0.25 (≈ 0.621 µM) | 0.06 (≈ 0.149 µM) | 0.015 (≈ 0.0373 µM) | Cc1c(N2CC(C(C)O)C(C)(C)C2)c(F)cc2c(=O)c(C(=O)O)cn(C3CC3)c12 (stereo not drawn) [drawing 423] | 
0.125 (≈ 0.29 µM) | 0.015 (≈ 0.0348 µM) | 0.03 (≈ 0.0697 µM) | Cc1c(N2CC3(CO)CCCC3(CO)C2)c(F)cc2c(=O)c(C(=O)O)cn(C3CC3)c12 (stereo not drawn) [drawing 452] | 
1 (≈ 1.99 µM) | 0.5 (≈ 0.995 µM) | 0.03 (≈ 0.0597 µM) | CCC(=O)OC[C@@H]1CN(c2c(F)cc3c(=O)c(C(=O)O)cn(C4CC4)c3c2C)C[C@@H]1COC(=O)CC [drawing 393] | 
0.5 (≈ 0.931 µM) | 0.03 (≈ 0.0559 µM) | 0.06 (≈ 0.112 µM) | CC(=O)O[C@@H]1CC[C@H]2CN(c3c(F)cc4c(=O)c(C(=O)O)cn(-c5nc(N)c(F)cc5F)c4c3Cl)C[C@H]21 [drawing 445] | 
0.06 (≈ 0.146 µM) | 0.004 (≈ 0.00974 µM) | 0.03 (≈ 0.073 µM) | O=C(O)c1cn(C2CC2)c2c(Cl)c(N3C[C@@H](CO)[C@@H](CO)C3)c(F)cc2c1=O [drawing 382] | 
2 (≈ 4.2 µM) | 0.5 (≈ 1.05 µM) | 0.25 (≈ 0.525 µM) | COCCOCC(O)C1CN(c2c(F)cc3c(=O)c(C(=O)O)cn(C4CC4)c3c2C)CC1(C)C (stereo not drawn) [drawing 424] | 
0.125 (≈ 0.305 µM) | 0.015 (≈ 0.0366 µM) | 0.03 (≈ 0.0731 µM) | Cc1c(N2CCC(C(F)(F)CO)C2)c(F)cc2c(=O)c(C(=O)O)cn(C3CC3)c12 (stereo not drawn) [drawing 335] | 
0.06 (≈ 0.148 µM) | 0.008 (≈ 0.0198 µM) | 0.015 (≈ 0.0371 µM) | COC[C@@H]1CN(c2c(F)cc3c(=O)c(C(=O)O)cn(C4CC4)c3c2C)C[C@@H]1CO [drawing 389] | 
0.25 (≈ 0.482 µM) | 0.008 (≈ 0.0154 µM) | 0.015 (≈ 0.0289 µM) | Nc1nc(-n2cc(C(=O)O)c(=O)c3cc(F)c(N4CCC(C(O)C(F)F)C4)c(Cl)c32)c(F)cc1F (stereo not drawn) [drawing 313] | 
2 (≈ 4.48 µM) | 0.125 (≈ 0.28 µM) | 0.25 (≈ 0.56 µM) | COc1c(N2C[C@]3(CO)CCC[C@]3(CO)C2)c(F)cc2c(=O)c(C(=O)O)cn(C3CC3)c12 [drawing 451] | 
0.125 (≈ 0.32 µM) | 0.008 (≈ 0.0205 µM) | 0.015 (≈ 0.0384 µM) | COc1c(N2CCC(C(C)O)C2)c(F)cc2c(=O)c(C(=O)O)cn(C3CC3)c12 (stereo not drawn) [drawing 316] | 
0.06 (≈ 0.154 µM) | 0.015 (≈ 0.0386 µM) | 0.008 (≈ 0.0206 µM) | Cc1c(N2CC(CO)C(C)(C)C2)c(F)cc2c(=O)c(C(=O)O)cn(C3CC3)c12 (stereo not drawn) [drawing 418] | 
2 (≈ 3.84 µM) | 0.06 (≈ 0.115 µM) | 0.125 (≈ 0.24 µM) | COc1c(N2CCC(C(O)c3ccc(S(C)(=O)=O)o3)C2)c(F)cc2c(=O)c(C(=O)O)cn(C3CC3)c12 (stereo not drawn) [drawing 319] | 
0.125 (≈ 0.299 µM) | 0.03 (≈ 0.0717 µM) | 0.03 (≈ 0.0717 µM) | CCOC[C@@H]1CN(c2c(F)cc3c(=O)c(C(=O)O)cn(C4CC4)c3c2C)C[C@@H]1CO [drawing 390] | 
0.5 (≈ 1.16 µM) | 0.06 (≈ 0.139 µM) | 0.06 (≈ 0.139 µM) | COc1c(N2C[C@@H]3CC[C@@](O)(CO)[C@@H]3C2)c(F)cc2c(=O)c(C(=O)O)cn(C3CC3)c12 [drawing 449] | 
0.25 (≈ 0.505 µM) | 0.03 (≈ 0.0606 µM) | 0.03 (≈ 0.0606 µM) | Nc1nc(-n2cc(C(=O)O)c(=O)c3cc(F)c(N4C[C@@H]5CC[C@@H](O)[C@@H]5C4)c(Cl)c32)c(F)cc1F [drawing 444] | 
0.03 (≈ 0.0797 µM) | 0.002 (≈ 0.00531 µM) | 0.004 (≈ 0.0106 µM) | COc1c(N2CCC(CO)C2)c(F)cc2c(=O)c(C(=O)O)cn(C3CC3)c12 (stereo not drawn) [drawing 309] | 
1 (≈ 2.13 µM) | 0.06 (≈ 0.128 µM) | 0.125 (≈ 0.266 µM) | O=C(O)c1cn(C2CC2)c2c(OC(F)F)c(N3C[C@@H](CCO)[C@@H](CCO)C3)c(F)cc2c1=O [drawing 397] | 
0.5 (≈ 1 µM) | 0.008 (≈ 0.016 µM) | 0.25 (≈ 0.501 µM) | Nc1nc(-n2cc(C(=O)O)c(=O)c3cc(F)c(N4C[C@@H](CO)[C@@H](CO)C4)c(Cl)c32)c(F)cc1F [drawing 383] | 
0.125 (≈ 0.315 µM) | 0.008 (≈ 0.0201 µM) | 0.016 (≈ 0.0403 µM) | O=C(O)c1cn(C2CC2)c2nc(N3CCC(C(O)C(F)F)C3)c(F)cc2c1=O (stereo not drawn) [drawing 314] | 
0.125 (≈ 0.265 µM) | 0.03 (≈ 0.0635 µM) | 0.03 (≈ 0.0635 µM) | COc1c(N2CCC(C)(C(O)CC(F)(F)F)C2)c(F)cc2c(=O)c(C(=O)O)cn(C3CC3)c12 (stereo not drawn) [drawing 374] | 
0.06 (≈ 0.134 µM) | 0.004 (≈ 0.00891 µM) | 0.004 (≈ 0.00891 µM) | O=C(O)c1cn(C2CC2)c2c(Cl)c(N3CCC(C(O)C(F)(F)F)C3)c(F)cc2c1=O (stereo not drawn) | 
